Values joined by “and” are separate entries in the source; they are usually repeats but may differ in a detail not shown here. Equal entries are not always repeated. Where two headings read alike, the source gives them in different places.
Test system: ATCC strain 43300 Staphylococcus aureus
Conditions: for survival (cfu/ml): 12 μg/ml oxacillin (re-added every 24 hours) + MSM (% in label), three columns = triplicate platings, inoculum 3.3×10^5/ml

CS(C)(=O)=O [MSM, Methylsulfonylmethane]
survival (cfu/ml) (24 hours, listed as 15% MSM): 1.35 × 10^4 cfu/ml and 1.30 × 10^4 cfu/ml
survival (cfu/ml) (24 hours, listed as 16% MSM): 7.6 × 10^3 cfu/ml and 7.4 × 10^3 cfu/ml
survival, Average Log (12 μg/ml oxacillin + MSM (% in label), 24 hours, listed as 5% MSM): 3.91 Log
survival, Average Log (12 μg/ml oxacillin + MSM (% in label), 24 hours, listed as 6% MSM): 3.92 Log
survival, Average Log (12 μg/ml oxacillin + MSM (% in label), 24 hours, listed as 7% MSM): 3.91 Log
survival, Average Log (12 μg/ml oxacillin + MSM (% in label), 24 hours, listed as 8% MSM): 3.82 Log
survival, Average Log (12 μg/ml oxacillin + MSM (% in label), 24 hours, listed as 9% MSM): 3.72 Log
survival, Average Log (12 μg/ml oxacillin + MSM (% in label), 24 hours, listed as 10% MSM): 3.76 Log
survival, Average Log (12 μg/ml oxacillin + MSM (% in label), 24 hours, listed as 11% MSM): 3.91 Log
survival, Average Log (12 μg/ml oxacillin + MSM (% in label), 24 hours, listed as 12% MSM): 3.85 Log
survival, Average Log (12 μg/ml oxacillin + MSM (% in label), 24 hours, listed as 13% MSM): 3.95 Log
survival, Average Log (12 μg/ml oxacillin + MSM (% in label), 24 hours, listed as 14% MSM): 4.00 Log
survival, Average Log (12 μg/ml oxacillin + MSM (% in label), 24 hours, listed as 15% MSM): 4.11 Log
survival, Average Log (12 μg/ml oxacillin + MSM (% in label), 24 hours, listed as 16% MSM): 3.88 Log
survival, Average Log (12 μg/ml oxacillin + MSM (% in label), 48 hours, listed as 5% MSM): 3.6 Log
survival, Average Log (12 μg/ml oxacillin + MSM (% in label), 48 hours, listed as 6% MSM): 3.2 Log
survival, Average Log (12 μg/ml oxacillin + MSM (% in label), 48 hours, listed as 7% MSM): 3.9 Log
survival, Average Log (12 μg/ml oxacillin + MSM (% in label), 48 hours, listed as 8% MSM): 3.7 Log
survival, Average Log (12 μg/ml oxacillin + MSM (% in label), 48 hours, listed as 9% MSM): 3.4 Log
survival, Average Log (12 μg/ml oxacillin + MSM (% in label), 48 hours, listed as 10% MSM): 2.7 Log
survival, Average Log (12 μg/ml oxacillin + MSM (% in label), 48 hours, listed as 11% MSM): 2.8 Log
survival, Average Log (12 μg/ml oxacillin + MSM (% in label), 48 hours, listed as 12% MSM): 2.8 Log
survival, Average Log (12 μg/ml oxacillin + MSM (% in label), 48 hours, listed as 13% MSM): 2.8 Log
survival, Average Log (12 μg/ml oxacillin + MSM (% in label), 48 hours, listed as 14% MSM): 1.0 Log
survival, Average Log (12 μg/ml oxacillin + MSM (% in label), 48 hours, listed as 15% MSM): 3.7 Log
survival, Average Log (12 μg/ml oxacillin + MSM (% in label), 48 hours, listed as 16% MSM): 3.7 Log
survival, Average Log (12 μg/ml oxacillin + MSM (% in label), 72 hours, listed as 5% MSM): 5.5 Log
survival, Average Log (12 μg/ml oxacillin + MSM (% in label), 72 hours, listed as 6% MSM): 5.5 Log
survival, Average Log (12 μg/ml oxacillin + MSM (% in label), 72 hours, listed as 7% MSM): 5.5 Log
survival, Average Log (12 μg/ml oxacillin + MSM (% in label), 72 hours, listed as 8% MSM): 5.5 Log
survival, Average Log (12 μg/ml oxacillin + MSM (% in label), 72 hours, listed as 9% MSM): 4.5 Log
survival, Average Log (12 μg/ml oxacillin + MSM (% in label), 72 hours, listed as 10% MSM): 4.0 Log
survival, Average Log (12 μg/ml oxacillin + MSM (% in label), 72 hours, listed as 11% MSM): 3.6 Log
survival, Average Log (12 μg/ml oxacillin + MSM (% in label), 72 hours, listed as 12% MSM): 3.1 Log
survival, Average Log (12 μg/ml oxacillin + MSM (% in label), 72 hours, listed as 13% MSM): 2.7 Log
survival, Average Log (12 μg/ml oxacillin + MSM (% in label), 72 hours, listed as 14% MSM): 2.0 Log
survival, Average Log (12 μg/ml oxacillin + MSM (% in label), 72 hours, listed as 15% MSM): 2.3 Log
log reduction in the number of cfu/ml (12 μg/ml oxacillin, 48 hours): 4.5 log
log reduction in the number of cfu/ml (12 μg/ml oxacillin, 72 hours): 4.5 log
log reduction in the number of cfu/ml (12 μg/ml oxacillin, MSM concentrations of 12%-16%, 72 hours): 1 log
average log reduction in the number of cfu/ml (12 μg/ml oxacillin, all MSM concentrations, 24 hours): 1.5 logs
average Log reduction in the number of cfu/ml (30 μg/ml and 60 μg/ml oxacillin, lower end of MSM concentrations, 24 hours): 3 log
survival, Average Log (30 μg/ml oxacillin + MSM (% in label), 24 hours, listed as 5% MSM): 2.51 Log
survival, Average Log (30 μg/ml oxacillin + MSM (% in label), 24 hours, listed as 6% MSM): 2.46 Log
survival, Average Log (30 μg/ml oxacillin + MSM (% in label), 24 hours, listed as 7% MSM): 2.98 Log
survival, Average Log (30 μg/ml oxacillin + MSM (% in label), 24 hours, listed as 8% MSM): 3.07 Log
survival, Average Log (30 μg/ml oxacillin + MSM (% in label), 24 hours, listed as 9% MSM): 3.01 Log
survival, Average Log (30 μg/ml oxacillin + MSM (% in label), 24 hours, listed as 10% MSM): 3.32 Log
survival, Average Log (30 μg/ml oxacillin + MSM (% in label), 24 hours, listed as 11% MSM): 3.57 Log
survival, Average Log (30 μg/ml oxacillin + MSM (% in label), 24 hours, listed as 12% MSM): 3.59 Log
survival, Average Log (30 μg/ml oxacillin + MSM (% in label), 24 hours, listed as 13% MSM): 3.62 Log
survival, Average Log (30 μg/ml oxacillin + MSM (% in label), 24 hours, listed as 14% MSM): 3.78 Log
survival, Average Log (30 μg/ml oxacillin + MSM (% in label), 24 hours, listed as 15% MSM): 3.94 Log
survival, Average Log (30 μg/ml oxacillin + MSM (% in label), 24 hours, listed as 16% MSM): 3.91 Log
survival, Average Log (30 μg/ml oxacillin + MSM (% in label), 48 hours, listed as 5% MSM): 3.8 Log
survival, Average Log (30 μg/ml oxacillin + MSM (% in label), 48 hours, listed as 6% MSM): 3.7 Log
survival, Average Log (30 μg/ml oxacillin + MSM (% in label), 48 hours, listed as 7% MSM): 2.3 Log
survival, Average Log (30 μg/ml oxacillin + MSM (% in label), 48 hours, listed as 8% MSM): 3.1 Log
survival, Average Log (30 μg/ml oxacillin + MSM (% in label), 48 hours, listed as 9% MSM): 2.4 Log
survival, Average Log (30 μg/ml oxacillin + MSM (% in label), 48 hours, listed as 10% MSM): 2.6 Log
survival, Average Log (30 μg/ml oxacillin + MSM (% in label), 48 hours, listed as 11% MSM): 2.4 Log
survival, Average Log (30 μg/ml oxacillin + MSM (% in label), 48 hours, listed as 12% MSM): 2.6 Log
survival, Average Log (30 μg/ml oxacillin + MSM (% in label), 48 hours, listed as 13% MSM): 2.5 Log
survival, Average Log (30 μg/ml oxacillin + MSM (% in label), 48 hours, listed as 14% MSM): 2.5 Log
survival, Average Log (30 μg/ml oxacillin + MSM (% in label), 48 hours, listed as 15% MSM): 2.8 Log
survival, Average Log (30 μg/ml oxacillin + MSM (% in label), 48 hours, listed as 16% MSM): 2.6 Log
survival, Average Log (30 μg/ml oxacillin + MSM (% in label), 72 hours, listed as 5% MSM): 5.5 Log
survival, Average Log (30 μg/ml oxacillin + MSM (% in label), 72 hours, listed as 6% MSM): 5.5 Log
survival, Average Log (30 μg/ml oxacillin + MSM (% in label), 72 hours, listed as 7% MSM): 4.5 Log
survival, Average Log (30 μg/ml oxacillin + MSM (% in label), 72 hours, listed as 8% MSM): 5.5 Log
survival, Average Log (30 μg/ml oxacillin + MSM (% in label), 72 hours, listed as 9% MSM): 2.9 Log
survival, Average Log (30 μg/ml oxacillin + MSM (% in label), 72 hours, listed as 10% MSM): 3.9 Log
survival, Average Log (30 μg/ml oxacillin + MSM (% in label), 72 hours, listed as 11% MSM): 3.2 Log
survival, Average Log (30 μg/ml oxacillin + MSM (% in label), 72 hours, listed as 12% MSM): 2.6 Log
survival, Average Log (30 μg/ml oxacillin + MSM (% in label), 72 hours, listed as 13% MSM): 1.8 Log
survival, Average Log (30 μg/ml oxacillin + MSM (% in label), 72 hours, listed as 14% MSM): 2.2 Log

Reference: US20130338130A1 (priority 2009, published 2013)
